From patent publication US20230116972A1, “CD38 MODULATORS AND METHODS OF USE THEREOF” (Cytokinetics, Inc., priority 2021, published 2023)

Key:
human CD38 = biological target: T1, human CD38 (Homo sapiens, UniProt P28907); test: human recombinant CD38 enzyme assay (hydrolysis of NAD+); format: biochemical; conditions: human recombinant CD38, 0.4 nM enzyme, 62.5 μM NAD+; read-out: hCD38 BioChem IC50
T1 sequence (P28907 1-300): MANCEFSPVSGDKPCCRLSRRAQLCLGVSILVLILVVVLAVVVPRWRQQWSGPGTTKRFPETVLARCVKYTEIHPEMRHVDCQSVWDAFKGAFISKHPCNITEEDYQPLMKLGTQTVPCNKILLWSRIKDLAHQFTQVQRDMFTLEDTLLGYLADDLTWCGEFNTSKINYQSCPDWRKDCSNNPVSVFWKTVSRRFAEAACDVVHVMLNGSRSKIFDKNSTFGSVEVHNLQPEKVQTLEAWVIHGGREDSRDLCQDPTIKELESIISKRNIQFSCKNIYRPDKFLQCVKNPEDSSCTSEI
Procedure, shortened: (§1)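 Residual substrate after a one-hour room-temperature incubation of recombinant CD38 with NAD+ and test compound is measured by an ADH/diaphorase coupled resorufin signal (540 nm excitation, 590 nm emission); reduced NAD+ consumption reflects inhibition.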

mouse CD38 = biological target: T2, mouse CD38 (Mus musculus, UniProt P56528); test: mouse recombinant CD38 enzyme assay (hydrolysis of NAD+); format: biochemical; conditions: read-out: mCD38 BioChem IC50
T2 sequence (P56528 1-304): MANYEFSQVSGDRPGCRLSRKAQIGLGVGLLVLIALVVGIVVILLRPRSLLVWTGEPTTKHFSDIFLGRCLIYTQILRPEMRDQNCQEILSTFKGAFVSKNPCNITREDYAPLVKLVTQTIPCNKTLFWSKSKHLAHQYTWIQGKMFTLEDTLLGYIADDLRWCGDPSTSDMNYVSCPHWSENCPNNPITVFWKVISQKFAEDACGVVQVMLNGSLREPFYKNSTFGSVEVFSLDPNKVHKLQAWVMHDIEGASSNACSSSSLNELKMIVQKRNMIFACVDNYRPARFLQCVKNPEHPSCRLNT
Procedure, shortened: as §1

[1] = biological target: T3, endogenous CD38 in HL60 cells (Homo sapiens, UniProt P28907); test: cellular CD38 assay in HL60 cells (cellular NAD levels); format: cell-based; conditions: all-trans retinoic acid, 24 hours, read-out: hCD38 HL60 ATRA NAD Cell Diaphorase IC50
T3 construct: endogenous in cells; host or cells: HL60 (leukemic cells, treated with all-trans retinoic acid)
T3 sequence (P28907 1-300): T1 sequence (P28907 1-300)
Procedure, shortened: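 Endogenous CD38 inhibition is inferred from NAD levels in HL60 cells after 24 h compound exposure at 20000 cells per well. A lytic cycling readout (0.2 U/mL diaphorase, 0.8 U/mL alcohol dehydrogenase, resazurin, FMN, ethanol, 0.2% Triton X-100, Tris/EDTA pH 8.4) ran 60 min at ambient temperature. Resorufin fluorescence was read at 540/590 nm.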

Row | IC50 (human CD38) [nM] | IC50 (mouse CD38) [nM] | IC50 [1] [nM] | Structure (SMILES)
1 | 23 | 6 | 1540 | O=C(NC1CCC(F)(F)CC1)c1cccc(-n2ccnc2)n1 [Compound 136, N-(4,4-difluorocyclohexyl)-6-(1H-imidazol-1-yl)picolinamide]
2 | 7 | 3.8 | 1080 | COc1cc(C(=O)Nc2ccc(C(F)F)nc2)nc(-c2cncn2C)c1 [Compound 225, N-(6-(difluoromethyl)pyridin-3-yl)-4-methoxy-6-(1-methyl-1H-imidazol-5-yl)picolinamide]
3 | 2 | 1.6 | 214 | Cc1cc(-n2ccnc2)nc(C(=O)Nc2ccc(C(F)F)nc2)n1 [Compound 215, N-(6-(difluoromethyl)pyridin-3-yl)-4-(1H-imidazol-1-yl)-6-methylpyrimidine-2-carboxamide]
4 | 4.3 | 1.7 | 1460 | Cn1cncc1-c1nc(C(=O)N[C@H]2C[C@H](c3ccccc3)C2)cc(C2CCOCC2)n1 [Compound 230, 2-(1-methyl-1H-imidazol-5-yl)-N-((1r,3r)-3-phenylcyclobutyl)-6-(tetrahydro-2H-pyran-4-yl)pyrimidine-4-carboxamide]
5 | 2 | 1 | 267 | COc1cc(C(=O)Nc2ccc(C(F)F)nc2)nc(-c2cncn2C)n1 [Compound 129, N-(6-(difluoromethyl)pyridin-3-yl)-6-methoxy-2-(1-methyl-1H-imidazol-5-yl)pyrimidine-4-carboxamide]
6 | 1190 | 433 | 4350 | O=C(Nc1cccnc1)c1ccnc(-n2ccnc2)c1 [Compound 10, 2-(1H-imidazol-1-yl)-N-(pyridin-3-yl)isonicotinamide]
7 | 361 | 99 | 10800 | O=C(N[C@H]1C[C@H](Oc2ccccc2)C1)c1nccc(-n2ccnc2)n1 [Compound 219, 4-(1H-imidazol-1-yl)-N-((1r,3r)-3-phenoxycyclobutyl)pyrimidine-2-carboxamide]
8 | 2.4 | 1.4 | 557 | COc1cc(-c2cncn2C)nc(C(=O)Nc2ccc(C(F)(F)F)nc2)n1 [Compound 234, 4-methoxy-6-(1-methyl-1H-imidazol-5-yl)-N-(6-(trifluoromethyl)pyridin-3-yl)pyrimidine-2-carboxamide]
9 | 71.6 | 36.4 | 5580 | CCO[C@H]1CC[C@H](NC(=O)c2nccc(-n3ccnc3)n2)CC1 [Compound 258, N-((1r,4r)-4-ethoxycyclohexyl)-4-(1H-imidazol-1-yl)pyrimidine-2-carboxamide]
10 | 10 | 1 | 1010 | Cc1cc(C(=O)N[C@H]2CC[C@H](C(F)F)CC2)nc(-c2cncn2C)n1 [Compound 122, N-((1r,4r)-4-(difluoromethyl)cyclohexyl)-6-methyl-2-(1-methyl-1H-imidazol-5-yl)pyrimidine-4-carboxamide]
11 | 93.5 | 31.2 | 3670 | Cn1cncc1-c1ccnc(C(=O)N[C@H]2CC[C@H](C(C)(C)O)CC2)n1 [Compound 254, N-((1r,4r)-4-(2-hydroxypropan-2-yl)cyclohexyl)-4-(1-methyl-1H-imidazol-5-yl)pyrimidine-2-carboxamide]
12 | 61 | 12 | 6710 | O=C(N[C@H]1CC[C@H](O)CC1)c1cc(C(F)(F)F)cc(-n2ccnc2)n1 [Compound 62, N-(4-hydroxycyclohexyl)-6-(1H-imidazol-1-yl)-4-(trifluoromethyl)picolinamide]
13 | 73 | 25 | 3010 | O=C(N[C@H]1CC[C@H](C(F)F)CC1)c1cc(C(F)(F)F)nc(-n2ccnc2)n1 [Compound 138, N-((1r,4r)-4-(difluoromethyl)cyclohexyl)-2-(1H-imidazol-1-yl)-6-(trifluoromethyl)pyrimidine-4-carboxamide]
14 | 233 | 139 | 14400 | O=C(N[C@H]1CCN(c2ccccc2)C1)c1nccc(-n2ccnc2)n1 [Compound 247, (S)-4-(1H-imidazol-1-yl)-N-(1-phenylpyrrolidin-3-yl)pyrimidine-2-carboxamide]
15 | 1240 | 432 | 5980 | O=C(Nc1cccnc1)c1cccc(-n2ccnc2)c1 [Compound 9, 3-(1H-imidazol-1-yl)-N-(pyridin-3-yl)benzamide]
16 | 13.7 | 1.8 | 2280 | CO[C@H]1CC[C@H](NC(=O)c2cc([C@H]3CC[C@@H](OC)CC3)nc(-c3cncn3C)n2)CC1 [Compound 315, N-((1r,4R)-4-methoxycyclohexyl)-6-((1s,4S)-4-methoxycyclohexyl)-2-(1-methyl-1H-imidazol-5-yl)pyrimidine-4-carboxamide]
17 | 189 | 38 | 8280 | COCCO[C@H]1CC[C@H](NC(=O)c2ccc(F)c(-n3ccnc3)n2)CC1 [Compound 54, 5-fluoro-6-(1H-imidazol-1-yl)-N-(4-(2-methoxyethoxy)cyclohexyl)picolinamide]
18 | 24 | 3 | 1530 | Cc1cc(C(=O)N[C@H]2CC[C@H](C(F)F)CC2)nc(-n2ccnc2)c1 [Compound 97, N-(4-(difluoromethyl)cyclohexyl)-6-(1H-imidazol-1-yl)-4-methylpicolinamide]
19 | 18.5 | 13.4 | 1920 | CO[C@H]1CC[C@H](NC(=O)c2nc(-c3cncn3C)cnc2N)CC1 [Compound 318, 3-amino-N-((1r,4r)-4-methoxycyclohexyl)-6-(1-methyl-1H-imidazol-5-yl)pyrazine-2-carboxamide]
20 | 488 | 44 | 10300 | COc1cc(C(=O)N[C@H]2CC[C@H](OC)CC2)nc(-c2cncs2)n1 [Compound 130, 6-methoxy-N-((1r,4r)-4-methoxycyclohexyl)-2-(thiazol-5-yl)pyrimidine-4-carboxamide]
21 | 98 | 66 | 5820 | CC(=O)N1CCC(NC(=O)c2cccc(-n3ccnc3)n2)CC1 [Compound 44, N-(1-acetylpiperidin-4-yl)-6-(1H-imidazol-1-yl)picolinamide]
22 | 104 | 45 | 1660 | O=C(Nc1ccc(F)cc1F)c1cccc(-n2ccnc2)n1 [Compound 24, N-(2,4-difluorophenyl)-6-(1H-imidazol-1-yl)picolinamide]
23 | 404 | 185 | 10800 | Cn1cncc1-c1ccnc(C(=O)N[C@H]2C[C@@H](c3ccc(C(F)(F)F)nc3)C2)n1 [Compound 274, 4-(1-methyl-1H-imidazol-5-yl)-N-((1s,3s)-3-(6-(trifluoromethyl)pyridin-3-yl)cyclobutyl)pyrimidine-2-carboxamide]
24 | 13 | 13 | 468 | COc1ccc(NC(=O)c2cccc(-n3ccnc3)n2)cn1 [Compound 25, 6-(1H-imidazol-1-yl)-N-(6-methoxypyridin-3-yl)picolinamide]
25 | 3.9 | 1.7 | 576 | Cn1cncc1-c1cc(C2CC2)nc(C(=O)Nc2ccc(C(F)F)nc2)n1 [Compound 206, 4-cyclopropyl-N-(6-(difluoromethyl)pyridin-3-yl)-6-(1-methyl-1H-imidazol-5-yl)pyrimidine-2-carboxamide]
